Test results published in US4594238A (Regents of University of Minnesota, priority 1984, dated 1986).
Read-outs that look alike come from different tables or passages of the source.

Columns and labels:
[1] = Platinum excretion kinetics / platinum accumulation after DDP; type: in vivo; details: four rats
Procedure: Platinum excretion kinetics were measured in four animals by measuring urinary platinum levels every 30 minutes for 4 hours and then every 2 hours for an additional 12 hours. Urinary platinum concentration declined to <10% of maximal concentration within 1.5 hours and >95% of the platinum excreted by the kidneys had appeared in the urine by this time.

Rat mammary tumor 13762 = assay: Comparative tumor response to DDP with and without NaDDTC rescue, Example 2; type: in vivo, Female F344 (Fischer) rats
Procedure: Female F344 (Fischer) rates, initial weight 100-150 g, were obtained from the Charles River Breeding Laboratory, Wilmington, MA. They were housed in methacrylate cages and given Purina rat chow and water ad libitum for at least one week. Lean weight of the rats were 150 g at the onset of experiments unless otherwise noted.
Mammary Tumor 13762 was obtained in the form of an implanted tumor in a female F344 rat. All intravenous injections were carried out under brief ether anesthesia.
Tumor inoculation was carried out as follows: two rats bearing tumors having a mean diameter of 2.5-3.5 cm were sacrificed using ether anesthesia. The tumors were excised immediately, finely minced, combined, and resuspended in 20-40 ml of normal saline. This suspension was filtered through a gauze pad to remove coarse pieces of tissue and the resulting suspension inoculated subcutaneously (0.2-0.5 ml/injection) into the left flank of each rat.

[2] = after DDP; cited from earlier work
[3] = mannitol diuresis coupled with intravenous prehydration, dogs; cited from earlier work
[4] = mannitol diuresis coupled with intravenous prehydration, humans; cited from earlier work

Compound | Fraction of kidney-excreted platinum in the urine by […] [1] | Urinary platinum concentration within […], of maximal concentration [1] | Other (non-relapsed) rats through day 50 (Rat mammary tumor 13762; DDP 2 mg/kg i.v., control, n=8) | Rats with relapse between days 25 and 30 (Rat mammary tumor 13762; DDP 2 mg/kg i.v., control, n=8) | Rats bearing tumors at day 24 (Rat mammary tumor 13762; DDP 2 mg/kg without rescue) | Tumor-free rats at day 24 (Rat mammary tumor 13762; DDP 2 mg/kg without rescue) | Mean tumor diameter at day 30 (Rat mammary tumor 13762; DDP 2 mg/kg without rescue, six rats) | Mean minimum tumor diameter (Rat mammary tumor 13762; DDP 2 mg/kg without rescue, six tumor-bearing rats, day 24) | Tumor-free rats by day 28 (Rat mammary tumor 13762; DDP 8 mg/kg, unrescued) | Animals with spontaneous relapse at the original site (Rat mammary tumor 13762; after DDP) | Time of spontaneous relapse after DDP administration (Rat mammary tumor 13762; rat, in vivo) | Time of maximal platinum accumulation (renal tubule) [2] | Amelioration of acute platinum toxicity [3] | Amelioration of acute platinum toxicity [4]
N.N.[Cl][Pt][Cl] [DDP, cis-dichlorodiammineplatinum(II), reference compound] | > 95% | < 10% | essentially free of tumor through day 50 | 2/8 | 6/8 | 2/8 | 2.4 cm | 1.6 cm | 3/8 | 25-75% | approximately 15 days | 30 to 60 min | – | –
OC[C@@H](O)[C@@H](O)[C@H](O)[C@H](O)CO [mannitol] | – | – | – | – | – | – | – | – | – | – | – | – | ameliorate acute toxicity | ameliorate acute toxicity
